Results on 20 compounds are retold here after ChEMBL document CHEMBL4732194, “Indolyl-α-keto-1,3,4-oxadiazoles: Synthesis, anti-cell proliferation activity, and inhibition of tubulin polymerization” (Bioorg Med Chem Lett, 2021).

Calls of active or inactive are those of the source. No cut-off for these calls is given here.

Assay [1] concerns Jurkat. Description: Antiproliferative activity against human Jurkat cells assessed as cell survival at 10 uM (reference value: 104.3 +/ 10.2 %). The conditions noted are these: read-out: Activity. It is filed as functional.
Assay [2] concerns BT-474. Description: Antiproliferative activity against human BT-474 cells assessed as cell survival at 10 uM (reference value: 100 +/ 6.3 %). The class given is functional. To be noted: read-out: Activity.
The nature of assay [3]: Antiproliferative activity against human SMS-SB cells assessed as cell survival at 10 uM (reference value: 100 +/ 6 %). To be noted: read-out: Activity. The class given is functional.
For assay [4], the system named is U-937. Description: Antiproliferative activity against human U-937 cells assessed as cell survival at 10 uM (reference value: 100 +/ 8.7 %). It is filed as functional. The conditions noted are these: read-out: Activity.
Assay [5] deals with Jurkat. Description: Induction of apoptotic cell death in human Jurkat cells assessed as activation of caspase 3/7 by fluorescence assay relative to control. The class given is functional.
In another assay the test system is MCF7. Description: Antiproliferative activity against estrogen-sensitive human MCF7 cells assessed as cell growth inhibition measured after 4 days by crystal violet staining based assay. It is filed as functional. To be noted: MCF7, 96 h.
Assay [6] can be described thus: Inhibition of calf brain tubulin polymerization assessed as disruption of microtubule assembly measured after 20 mins in presence of GTP by turbidometric analysis. It is filed as tissue-based, Bos taurus.
Assay [7] in a line: Inhibition of porcine brain tubulin polymerization assessed as disruption of microtubule assembly measured after 1.5 hrs in presence of GTP by fluorescence based analysis. The class given is tissue-based, Sus scrofa.
The test system of assay [8] is Jurkat. Briefly: Antiproliferative activity against human Jurkat cells assessed as inhibition of cell proliferation. The class given is functional, cell-based.
In assay [9] the test system is BT-474. Briefly: Antiproliferative activity against human BT-474 cells assessed as inhibition of cell proliferation. The class given is functional, cell-based.
The subject of assay [10] is Jurkat. Briefly: Cytotoxicity against human Jurkat cells assessed as cell membrane damage by LDH assay. The class given is functional, cell-based.
The nature of assay [11]: Antiproliferative activity against human SMS-SB cells assessed as inhibition of cell proliferation. The class given is functional, cell-based.
For assay [12], the system named is Jurkat. Briefly: Induction of apoptotic cell death in human Jurkat cells assessed as activation of caspase 3/7 at 3 uM by fluorescence assay relative to control. It is filed as functional.
The next assay concerns the target Tubulin (Homo sapiens) (UniProt P68371+Q9H4B7+P0DPH7+P68366+Q13509+Q71U36+P04350+Q3ZCM7+P07437+P68363+Q9BQE3+Q6PEY2+Q13885+Q9BVA1+Q9BUF5). Description: (§1) Inhibition of tubulin polymerization (unknown origin) assessed as inhibition of microtubule formation. It is filed as protein-complex assay.
The target in another assay is Tubulin. Described as §1. The class given is protein-complex assay, Homo sapiens.
The subject of assay [13] is U-937. Description: Antiproliferative activity against human U-937 cells assessed as inhibition of cell proliferation. It is filed as functional, cell-based.

For the compound `COc1cc(C(=O)c2nnc(-c3cc4ccccc4[nH]3)o2)cc(OC)c1OC`, the viability at 10 µM with Jurkat [1] is 44.9%; with BT-474 [2] it was 111%; in assay [3], 35.7%; in the assay on U-937 [4] it was 91.2%.
The corresponding values for `COc1ccc(C(=O)c2nnc(-c3c[nH]c4cc(F)ccc34)o2)cc1` are 86.4%, 72.6%, 101% and 108%.
Turning to `COc1cccc2c1C(=O)c1c(O)c3c(c(O)c1C2=O)C[C@@](O)(C(=O)CO)C[C@@H]3O[C@H]1C[C@H](N)[C@H](O)[C@H](C)O1` [DOXORUBICIN], the “fold change (FC)” value in the assay on Jurkat [5] is given as 8. The viability at 10 µM in the assay with Jurkat [1] was 30.1%; in the assay with BT-474 [2], 31.8%; in assay [3], 15.1%; with U-937 [4], 22.9%.
For the compound `O=C(Nc1ccncc1)C(=O)c1cn(Cc2ccc(Cl)cc2)c2ccccc12` [INDIBULIN], the viability at 10 µM was determined as 31.6% in the assay on Jurkat [1], 40.9% in the assay with BT-474 [2], 32.9% in assay [3] and 27.1% with U-937 [4].
On to `COc1ccc(C(=O)c2nnc(-c3c[nH]c4ccc(Br)cc34)o2)cc1`, for which the viability at 10 µM with Jurkat [1] was determined as 88.8%; in the assay on BT-474 [2], 65.8%; in assay [3] it was 94.8%; with U-937 [4], 105%.
Take `COc1ccc(C(=O)c2nnc(-c3cc4ccccc4[nH]3)o2)cc1OC`: the viability at 10 µM in the assay with Jurkat [1] amounted to 67.4%; in the assay on BT-474 [2], 67.4%; in [3], 76.1%; in the assay on U-937 [4], 75.2%.
For the compound `COc1ccc2[nH]cc(-c3nnc(C(=O)c4cc(OC)c(OC)c(OC)c4)o3)c2c1`, the viability at 10 µM in the assay on Jurkat [1] amounted to 88.9%; in the assay on BT-474 [2], 54%; in assay [3] it was 74.3%; in the assay on U-937 [4], 85.5%.
The corresponding values for `COc1ccc(C(=O)c2nnc(-c3c[nH]c4ccccc34)o2)cc1` are 99.6%, 88.4%, 96.2% and 108%.
On to `COc1ccc(-c2[nH]c3cc(OC)ccc3c2C=O)cc1`, for which the IC50 (usually the concentration that gives 50% inhibition) was determined as 35 nM in the assay with MCF7 and 1500 nM in [6].
For `O=C(c1ccccc1)c1nnc(-c2c[nH]c3ccccc23)o1`, the viability at 10 µM in the assay with Jurkat [1] is 82.1%; in the assay on BT-474 [2], 59.3%; in [3] it was 87.6%; in the assay on U-937 [4], 98.7%.
The corresponding values for `COc1ccc(C(=O)c2nnc(-c3c[nH]c4ccc(OC)cc34)o2)cc1` are 99.9%, 70.3%, 70.7% and 98.7%.
As to `COc1cc(C(=O)c2nnc(-c3c[nH]c4ccc(Br)cc34)o2)cc(OC)c1OC`, the viability at 10 µM in the assay on Jurkat [1] turned out to be 77.4%; in the assay with BT-474 [2] it was 56.8%; in assay [3], 70.9%; in the assay with U-937 [4], 92.1%.
Taken in the same sequence, the figures for `COc1ccc(C(=O)c2nnc(-c3cc4ccccc4[nH]3)o2)cc1` were 75.1%, 56.1%, 79.9% and 84.1%.
Consider `COc1ccc(C(=O)c2nnc(-c3c[nH]c4ccccc34)o2)cc1OC`, for which the viability at 10 µM in the assay on Jurkat [1] came to 92.5%; in the assay with BT-474 [2] it was 70.2%; in [3], 93.5%; in the assay with U-937 [4], 90.3%.
For the compound `Cc1ccc(C(=O)c2nnc(-c3c[nH]c4ccccc34)o2)cc1`, the viability at 10 µM is 78.9% in the assay with Jurkat [1], 67.9% in the assay on BT-474 [2], 66.8% in [3] and 102% with U-937 [4].
Taken in the same sequence, the figures for `COc1cc(C(=O)c2nnc(-c3cn(Cc4ccc(Cl)cc4)c4ccccc34)o2)cc(OC)c1OC` were 80.6%, 68.5%, 96.2% and 86%.
With `O=C(c1ccc(F)cc1)c1nnc(-c2c[nH]c3ccccc23)o1`, the viability at 10 µM worked out at 90.9% in the assay on Jurkat [1], 62.3% in the assay on BT-474 [2], 76.8% in [3] and 95.3% in the assay on U-937 [4].
For the compound `COc1cc(/C=C/c2nnc(-c3cc(-c4ccc(Cl)cc4)n[nH]3)o2)cc(OC)c1OC`, the IC50 in [7] is 1300 nM.
Turning to `O=C(c1ccccc1)c1nnc(-c2cn(Cc3ccc(Cl)cc3)c3ccccc23)o1`, the viability at 10 µM came out at 82% in the assay on Jurkat [1], 68.9% in the assay on BT-474 [2], 87.9% in [3] and 85% with U-937 [4].
For `COc1cc(C(=O)c2nnc(-c3c[nH]c4ccccc34)o2)cc(OC)c1OC`, the IC50 in the assay on Jurkat [8] was 3100 nM; in the assay with BT-474 [9], 4100 nM; in assay [11], 800 nM; at Tubulin, 10700 nM; with U-937 [13], 7100 nM. For the same compound, in the assay with Jurkat [10], the result was inactive. In addition, the viability at 10 µM in the assay with Jurkat [1] was 35.2%; in the assay with BT-474 [2] it was 41.1%; in assay [3] it was 11.6%; in the assay on U-937 [4], 27.5%. The “fold change (FC)” value in the assay with Jurkat [12] was determined as 9. The inhibition result on Tubulin (Homo sapiens) is “Dose-dependent effect”.
